Measurements: patent US4160015A, “2,4,6-Triiodobenzoic acid derivatives and their use as x-ray contrast agents” (priority 1978, dated 1979)
Counter-ions that a name gives are not always drawn.

Columns and labels:
[1] = Acute Intravenous Toxicity Studies in Mice; conditions: mouse, in vivo, lateral tail vein, solutions containing 28.27% iodine, 1 ml./min., seven day observation, read-out: LD50 of N-Methylglucamine Salt, I.V. (Mice)
Method: (§1) Toxicity evaluations were carried out on solutions of the N-methylglucaminesalt of 5-gluconamido-2,4,6-triiodo-N-methylisophthalamic acid by three different techniques and on solutions of the N-methylglucamine salt of 3-acetamido-2,4,6-triiodo-5-trishydroxymethylacetamido-benzoic acid by two different techniques. The techniques utilized are outlined below.
Swiss Albino mice (Charles River) were dosed in the lateral tail vein with solutions of the iodinated compound containing 28.27% of iodine, injected at the rate of 1 ml./min. […] The LD50 values were calculated by the method of Litchfield and Wilcoxon (J. of Pharmac. and Exptl. Therap. 96:99-113, 1949).

[2] = Intracerebral Toxicity in Mice; conditions: mouse, in vivo, fixed volumes of various concentrations, seven day observation, read-out: LD50 of N-Methylglucamine Salt, Intracerebral (Mice)
Method: as §1
Swiss Albino mice (Charles River) were used. Fixed volumes of solutions of various concentrations of the iodinated compounds were injected intracerebrally via a 27 gauge needle, (1/4 inch length) according to the method of Haley, et al. (Br. J. of Pharmac. 12:12-15, 1957). The animals were observed immediately after injections and daily throughout a seven day observation period. The LD50 values were calculated by the method of Litchfield and Wilcoxon (J. of Pharmac. and Exptl. Therap. 96:99-113, 1949).

[3] = crystal formation on standing (sodium salt, five months at 5°-10° C.); type: physicochemical; conditions: standing for over five months at 5°-10° C.
[4] = water solubility; type: physicochemical; conditions: for water solubility: 25° C.
[5] = Intracisternal Toxicity in Rats; parameters: species or system Sprague Dawley (Carworth) rats; conditions: rat, in vivo, two day observation, read-out: LD50 of N-Methylglucamine Salt, Intracisternal (Rats)
Method: as §1
Sprague Dawley (Carworth) rats were used. The method used is a variation of the procedure outlined by Melartin et al. (Invest. Rad. 5:13-21, 1970). After dosing, the animals were housed individually, and observed for immediate reactions and periodically for a two day observation period. The LD50 values were calculated according to the method of Litchfield and Wilcoxon, (J. of Pharmac. and Exptl. Therap. 96:99-115, 1949).

SMILES | LD50 at 168 h [1] | LD50 at 168 h [2] | water solubility [4] | other results
CC(=O)Nc1c(I)c(NC(=O)C(CO)(CO)CO)c(I)c(C(=O)O)c1I [N-methylglucamine salt of 3-acetamido-2,4,6-triiodo-5-trishydroxymethylacetamido-benzoic acid] | 6000 mg/kg | 150 mg/kg | – | –
CNC(=O)c1c(I)c(NC(=O)[C@H](O)[C@@H](O)[C@H](O)[C@H](O)CO)c(I)c(C(=O)O)c1I [Example 2, Sodium 5-Gluconamido-2,4,6-triiodo-N-methylisophthalamate] | – | – | – | crystals formed after standing [3]: no crystals formed; solubility ([4]; water, read-out: solubility of the sodium salt): > 1010 mg/mL
CC(=O)Nc1c(I)c(NC(=O)C(CO)(CO)CO)c(I)c(C(=O)O)c1I [Example 3, 3-Acetamido-2,4,6-triiodo-5-(trishydroxymethyl)acetamido-benzoic Acid] | – | – | 2-2.5 % w/v | –
CNC(=O)c1c(I)c(NC(=O)[C@H](O)[C@@H](O)[C@H](O)[C@H](O)CO)c(I)c(C(=O)O)c1I [N-methylglucaminesalt of 5-gluconamido-2,4,6-triiodo-N-methylisophthalamic acid] | 5200 mg/kg | 620 mg/kg | – | LD50 at 48 h [5]: 355 mg/kg
CC(=O)Nc1c(I)c(NC(=O)C(CO)(CO)CO)c(I)c(C(=O)O)c1I [Example 4, sodium salt of 3-acetamido-2,4,6-triiodo-5-trishydroxymethylacetamido-benzoic acid] | – | – | 63.5-66 % w/v | –
